Data published in patent US9475842B2, “Hexadepsipeptide analogues as anticancer compounds” (PIRAMAL ENTERPRISES LIMITED, priority 2012, dated 2016).

How the values were obtained:
Assay in all cases: Protein expression by high content screening (Cellomics)
Format in all cases: cell-based, human
[1] = tested on: protein c-jun N-terminal kinase (pJNK) in HeLa cells; settings: for Fold activation with respect to control cells, pJNK: HeLa cells, after 3 hours
Description: (§1) Protein expressions of cyclin D, nuclear factor-kappa B (p65) [NFkB (p65)], ribosomal protein S6 (pS6), tumor protein 53 (p53), protein c-jun N-terminal kinase (pJNK), cleaved caspase 9, cleaved caspase 3 and cleaved poly(ADP-ribose) polymerase (PARP) was carried out in HeLa cells [referred to in step 1 of example 16] by Cellomics high content imaging. These primary antibodies were purchased from Santacruz Biotechnology, USA. Briefly 1×10^4 cells were seeded in 96 well tissue culture grade black plate with transparent bottom (Nunc, USA), and allowed to adhere for 24 h, and then replaced with fresh media, and cells were treated with 0.01 μM, 0.003 μM and 0.0003 μM concentrations of compound of Formula (1) [referred to in step 2 of example 16] and incubated for 1 h and 3 h respectively. After respective time point, cells were fixed with 3.7% formaldehyde (Sigma St. Louis, Mo.) for 10 minutes at RT, followed by permeabilization with 0.15% Triton X-100 (Sigma St. Louis, Mo.) for 10 minutes. Then the cells were blocked with 5% Bovine Serum Albumin for 2 hours. After blocking step, specific primary antibodies were added for 1 h, and primary antibodies of different protein were localized by secondary antibody labeled with Dylight548 (red) (Thermofisher, USA). Following secondary incubation, the nucleus was stained with Hoechst 3342 (blue) (Sigma, USA). Immunofluorescence was determined by scanning the plates on Cellomics Array Scan® VTI HCS Reader (Thermo-Fisher Scientific Inc., Waltham, Mass.). All the data points were analyzed using the Compartmental Analysis bio-algorithm of Cellomics and quantitative data were expressed as % activation in comparison to the untreated cells. 1000 cells were counted for each replicate well and the results were presented as an average±S.E.

[2] = tested on: cleaved caspase 3 in HeLa cells; settings: for Fold activation with respect to control cells, Cleaved Caspase 3: HeLa cells, after 3 hours
Description: as §1

[3] = tested on: nuclear factor-kappa B (p65) [NFkB (p65)] in HeLa cells; settings: for Fold down regulation with respect to control cells, NFkB (p65): HeLa cells, after 3 hours
Description: as §1

[4] = tested on: cleaved poly(ADP-ribose) polymerase (PARP) in HeLa cells; settings: for Fold activation with respect to control cells, Cleaved PARP: HeLa cells, after 3 hours
Description: as §1

[5] = tested on: tumor protein 53 (p53) in HeLa cells; settings: for Fold activation with respect to control cells, P53: HeLa cells, after 3 hours
Description: as §1

[6] = tested on: ribosomal protein S6 (pS6) in HeLa cells; settings: for Fold down regulation with respect to control cells, pS6: HeLa cells, after 3 hours
Description: as §1

[7] = tested on: cleaved caspase 9 in HeLa cells; settings: for Fold activation with respect to control cells, Cleaved Caspase 9: HeLa cells, after 3 hours
Description: as §1

## CC(C)CC1CCC(O)(C(C)(O)C(=O)NC2C(=O)N3NCCCC3C(=O)N(O)C(C)C(=O)NCC(=O)N3NCCCC3C(=O)N(O)C(C)C(=O)OC2C(C)C)OC1C (stereo not shown) [Formula (1a), N-(6,18-dihydroxy-22-isopropyl-7,19-dimethyl-5,8,11,17,20,24-hexaoxotetracosa hydrodipyridazino[6,1-f:6′,1′-o][1,4,7,10,13,16]oxapentaazacyclononadecin-23-yl)-2-hydroxy-2-(2-hydroxy-5-isobutyl-6-methyltetrahydro-2H-pyran-2-yl)propanamide]
[1]; 0.0003 μM
  Fold activation with respect to control cells, pJNK: 0.55 fold
[1]; 0.003 μM
  Fold activation with respect to control cells, pJNK: 0.85 fold
[1]; 0.01 μM
  Fold activation with respect to control cells, pJNK: 2.42 fold
[1]; cancer cells, conclusion
  effect on pJNK expression (in words): up-regulates
[2]; 0.0003 μM
  Fold activation with respect to control cells, Cleaved Caspase 3: −0.04 fold
[2]; 0.003 μM
  Fold activation with respect to control cells, Cleaved Caspase 3: 0.53 fold
[2]; 0.01 μM
  Fold activation with respect to control cells, Cleaved Caspase 3: 1.62 fold
[2]; cancer cells, conclusion
  effect on cleaved caspase 3 (in words): prominent upregulation
[3]; 0.0003 μM
  Fold down regulation with respect to control cells, NFkB (p65): −0.46 fold
[3]; 0.003 μM
  Fold down regulation with respect to control cells, NFkB (p65): −0.80 fold
[3]; 0.01 μM
  Fold down regulation with respect to control cells, NFkB (p65): −1.86 fold
[3]; cancer cells, conclusion
  effect on NFkB (p65) protein expression (in words): significantly downregulates
[4]; 0.0003 μM
  Fold activation with respect to control cells, Cleaved PARP: 0.52 fold
[4]; 0.003 μM
  Fold activation with respect to control cells, Cleaved PARP: 1.09 fold
[4]; 0.01 μM
  Fold activation with respect to control cells, Cleaved PARP: 1.51 fold
[4]; cancer cells, conclusion
  effect on cleaved PARP (in words): prominent upregulation
[5]; 0.0003 μM
  Fold activation with respect to control cells, P53: −0.15 fold
[5]; 0.003 μM
  Fold activation with respect to control cells, P53: 0.55 fold
[5]; 0.01 μM
  Fold activation with respect to control cells, P53: 2.27 fold
[5]; cancer cells, conclusion
  effect on p53 expression (in words): up-regulates
[6]; 0.0003 μM
  Fold down regulation with respect to control cells, pS6: −0.42 fold
[6]; 0.003 μM
  Fold down regulation with respect to control cells, pS6: −0.56 fold
[6]; 0.01 μM
  Fold down regulation with respect to control cells, pS6: −1.97 fold
[6]; cancer cells, conclusion
  effect on pS6 protein expression (in words): significantly downregulates
[7]; 0.0003 μM
  Fold activation with respect to control cells, Cleaved Caspase 9: −0.04 fold
[7]; 0.003 μM
  Fold activation with respect to control cells, Cleaved Caspase 9: 0.53 fold
[7]; 0.01 μM
  Fold activation with respect to control cells, Cleaved Caspase 9: 2.22 fold
[7]; cancer cells, conclusion
  effect on cleaved caspase 9 expression (in words): up-regulates
